Measured values as given in ChEMBL document CHEMBL1201862, “PubChem BioAssay data set” (2004).
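Results reflect a 48-hour exposure of cells in 96-well plates to compound at five concentrations. At the GI50, growth is halved.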 Calls of active or inactive are those of the source. Rule as the data show it: active = GI50 up to about 1.1 µM and inactive = higher.

Tests used:
Test in all cases: NCI tumour cell line growth inhibition, 48 h
[1] = test system: DU-145
[2] = test system: HCC 2998
[3] = test system: HOP-92
[4] = test system: MCF7
[5] = test system: MDA-MB-231
[6] = test system: MDA-N
[7] = test system: NCI-H226
[8] = test system: OVCAR-5
[9] = test system: OVCAR-8
[10] = test system: PC-3
[11] = test system: SF-268
[12] = test system: SF-539
[13] = test system: SK-MEL-28
[14] = test system: SK-MEL-2
[15] = test system: SN12C
[16] = test system: SR
[17] = test system: SW-620
[18] = test system: TK-10
[19] = test system: U-251

SMILES	GI50 [1]	GI50 [2]	GI50 [3]	GI50 [4]	GI50 [5]	GI50 [6]	GI50 [7]	GI50 [8]	GI50 [9]	GI50 [10]	GI50 [11]	GI50 [12]	GI50 [13]	GI50 [14]	GI50 [15]	GI50 [16]	GI50 [17]	GI50 [18]	GI50 [19]
N/N=C1N=C(Cl)/C(=C/c2ccco2)N\1	50.4 µM (inactive)	27.6 µM (inactive)	47.2 µM (inactive)	56 µM (inactive)	> 100 µM (inactive)	47.8 µM (inactive)	> 100 µM (inactive)	> 100 µM (inactive)	44.5 µM (inactive)	36.7 µM (inactive)	34.3 µM (inactive)	22.4 µM (inactive)	60.8 µM (inactive)	36.2 µM (inactive)	67.1 µM (inactive)	25.8 µM (inactive)	41.5 µM (inactive)	71.9 µM (inactive)	47.9 µM (inactive)
N#CCC12CC=CCC1=C(O)C(=O)c1ccc(O)cc12 (centres undefined)	> 100 µM (inactive)	> 100 µM (inactive)		> 100 µM (inactive)	> 100 µM (inactive)	> 100 µM (inactive)	68.5 µM (inactive)	> 100 µM (inactive)	> 100 µM (inactive)	> 100 µM (inactive)	> 100 µM (inactive)	> 100 µM (inactive)	> 100 µM (inactive)	> 100 µM (inactive)	> 100 µM (inactive)	90.8 µM (inactive)	> 100 µM (inactive)	> 100 µM (inactive)	> 100 µM (inactive)
CCOC(=O)NC(NC1=NCCS1)(C(=O)OCC)C(F)(F)F (centres undefined)	> 100 µM (inactive)	> 100 µM (inactive)	> 100 µM (inactive)	> 100 µM (inactive)	> 100 µM (inactive)	> 100 µM (inactive)	> 100 µM (inactive)	> 100 µM (inactive)	> 100 µM (inactive)	> 100 µM (inactive)	> 100 µM (inactive)	> 100 µM (inactive)	> 100 µM (inactive)	> 100 µM (inactive)	> 100 µM (inactive)	> 100 µM (inactive)	> 100 µM (inactive)	> 100 µM (inactive)	> 100 µM (inactive)
O=[N+]([O-])C(=C(N1CCOCC1)N1CCOCC1)/C(Cl)=C(\Cl)Br	46.6 µM (inactive)	> 100 µM (inactive)	16.2 µM (inactive)	> 10 µM (inactive)	17.9 µM (inactive)	26.4 µM (inactive)	27.6 µM (inactive)	17.1 µM (inactive)	24.1 µM (inactive)	35 µM (inactive)	23.6 µM (inactive)	24.3 µM (inactive)	17.4 µM (inactive)	21.8 µM (inactive)	17 µM (inactive)	17.2 µM (inactive)	15.5 µM (inactive)		19 µM (inactive)
OC1(c2ccccc2)C2CC=CC2C1(c1ccccc1)c1ccccc1 (centres undefined)	61.7 µM (inactive)	19.8 µM (inactive)	33.3 µM (inactive)	26.4 µM (inactive)	40.6 µM (inactive)	25 µM (inactive)		60.8 µM (inactive)	40.2 µM (inactive)	42.6 µM (inactive)	31 µM (inactive)	77.1 µM (inactive)	40.1 µM (inactive)	12 µM (inactive)	30.1 µM (inactive)	19.2 µM (inactive)	30.2 µM (inactive)	29.6 µM (inactive)	32.5 µM (inactive)
CCOC(=O)N(C)C1(c2ccccc2)CCN(CCCC(=O)c2ccc(F)cc2)CC1	> 100 µM (inactive)	21 µM (inactive)	34.8 µM (inactive)	33.4 µM (inactive)	39.4 µM (inactive)	21.7 µM (inactive)	35.4 µM (inactive)	49 µM (inactive)	> 100 µM (inactive)	36.8 µM (inactive)	90.4 µM (inactive)	28.6 µM (inactive)	21 µM (inactive)	21.5 µM (inactive)	83.4 µM (inactive)	19.8 µM (inactive)	0.349 µM (active)	45.3 µM (inactive)	61.4 µM (inactive)
NC1Cc2ccccc2OC1=O (centres undefined)	> 100 µM (inactive)	> 100 µM (inactive)		> 100 µM (inactive)	> 100 µM (inactive)	> 10 µM (inactive)	> 100 µM (inactive)	> 100 µM (inactive)	> 100 µM (inactive)	> 100 µM (inactive)	> 100 µM (inactive)	> 100 µM (inactive)	> 100 µM (inactive)	> 100 µM (inactive)	> 100 µM (inactive)	> 100 µM (inactive)	> 100 µM (inactive)	> 100 µM (inactive)	> 100 µM (inactive)
COc1ccc(C2CC(C)(O)Oc3cc4c(cc32)OCO4)cc1 (centres undefined)	61.2 µM (inactive)	47.6 µM (inactive)	28.4 µM (inactive)	34.9 µM (inactive)	32.6 µM (inactive)	10.5 µM (inactive)	53.7 µM (inactive)	55.7 µM (inactive)	35 µM (inactive)	18.7 µM (inactive)	35.8 µM (inactive)	38.9 µM (inactive)	45.6 µM (inactive)	15.8 µM (inactive)	45.8 µM (inactive)	24.2 µM (inactive)	36 µM (inactive)	36.1 µM (inactive)	31.4 µM (inactive)
Cc1nnc(SCc2nc(C#N)c(C#N)nc2CSc2nnc(C)s2)s1	14.5 µM (inactive)	16.5 µM (inactive)	12.9 µM (inactive)	12.3 µM (inactive)	16.6 µM (inactive)	17.6 µM (inactive)	25.1 µM (inactive)	18.1 µM (inactive)	12.9 µM (inactive)	14.8 µM (inactive)	17.9 µM (inactive)	19.6 µM (inactive)	26.9 µM (inactive)	25.2 µM (inactive)	17.3 µM (inactive)	4.6 µM (inactive)	3.43 µM (inactive)	6.82 µM (inactive)	18.7 µM (inactive)
N#CC1C(=S)NC(c2ccccc2)=CC12CCCCC2 (centres undefined)	26.6 µM (inactive)	> 100 µM (inactive)	18.6 µM (inactive)	21.9 µM (inactive)	38.9 µM (inactive)	31.5 µM (inactive)	26.7 µM (inactive)	37.5 µM (inactive)	32.1 µM (inactive)	38 µM (inactive)	66.8 µM (inactive)	43 µM (inactive)	34.4 µM (inactive)	24 µM (inactive)	35 µM (inactive)	21.1 µM (inactive)	38.8 µM (inactive)	23 µM (inactive)	31.1 µM (inactive)
O=C(/C=C/c1ccc(C(F)(F)F)cc1)c1c([O-])on[n+]1-c1ccccc1	2.21 µM (inactive)	1.98 µM (inactive)	1.6 µM (inactive)	1.15 µM (inactive)	4.53 µM (inactive)	1.84 µM (inactive)	6 µM (inactive)	3.12 µM (inactive)	1.92 µM (inactive)	3.19 µM (inactive)		2.03 µM (inactive)	1.61 µM (inactive)	2.81 µM (inactive)	2.23 µM (inactive)	0.196 µM (active)	1.37 µM (inactive)	1.65 µM (inactive)	1.83 µM (inactive)
Clc1cc(Cl)ncn1	> 100 µM (inactive)	> 100 µM (inactive)	> 100 µM (inactive)	> 100 µM (inactive)	> 100 µM (inactive)	> 100 µM (inactive)	> 100 µM (inactive)	> 100 µM (inactive)	> 100 µM (inactive)	> 100 µM (inactive)	> 100 µM (inactive)	> 100 µM (inactive)	> 100 µM (inactive)		> 100 µM (inactive)	> 100 µM (inactive)	> 100 µM (inactive)	> 100 µM (inactive)	> 100 µM (inactive)
C[C@]12CC[C@H](O)CC1=CC[C@@H]1[C@@H]2CC[C@]2(C)C(=O)[C@@H](N3CCOCC3)C[C@@H]12	> 100 µM (inactive)	> 100 µM (inactive)	50.5 µM (inactive)	> 100 µM (inactive)	> 100 µM (inactive)	> 100 µM (inactive)	> 100 µM (inactive)	> 100 µM (inactive)	47.1 µM (inactive)	> 100 µM (inactive)	48.4 µM (inactive)	> 100 µM (inactive)	> 100 µM (inactive)	> 100 µM (inactive)	> 100 µM (inactive)	44.2 µM (inactive)	> 100 µM (inactive)	> 100 µM (inactive)	89.3 µM (inactive)
CCOc1cc2c(cc1O)C=C[C@@H]1[C@@H]2CC[C@]2(C)[C@@H](O)CC[C@@H]12	1.53 µM (inactive)	6.34 µM (inactive)	29.9 µM (inactive)	3.61 µM (inactive)	4.11 µM (inactive)	0.33 µM (active)	4.06 µM (inactive)	27.6 µM (inactive)	4.29 µM (inactive)	3.64 µM (inactive)	9.06 µM (inactive)	2.04 µM (inactive)	22.3 µM (inactive)	4.38 µM (inactive)	4.52 µM (inactive)	0.472 µM (active)	1.87 µM (inactive)	14.4 µM (inactive)	3.43 µM (inactive)
c1ccc(NNN2NC(c3ccccc3)C2c2ccccc2)cc1 (centres undefined)	> 100 µM (inactive)	> 100 µM (inactive)	> 100 µM (inactive)	98.2 µM (inactive)	> 100 µM (inactive)	> 100 µM (inactive)	> 100 µM (inactive)	> 100 µM (inactive)	> 100 µM (inactive)	> 100 µM (inactive)	> 100 µM (inactive)	> 100 µM (inactive)	> 100 µM (inactive)	> 100 µM (inactive)	> 100 µM (inactive)	> 100 µM (inactive)	> 100 µM (inactive)	> 100 µM (inactive)	> 100 µM (inactive)
